Laboratory results as given in patent US9212209B2, “Screening methods for spinal muscular atrophy” (Indiana University Research and Technology Corporation, priority 2012, dated 2015).
Where “and” joins values, the source holds several entries; their conditions need not be identical. Equal values may be shown once. Read-outs that look alike come from different tables or passages of the source.

Key:
SMN2-luciferase reporter [1] = assay: SMN2-luciferase reporter assay (clonal HEK-293 SMN2-luc cells); assay type: cell-based, human; design: increase of luciferase activity: dose or concentration left out as unconfirmed; conditions: for Na-But RLU ave: 0.5 mg/mL sodium butyrate; for S/B: 0.5 mg/mL sodium butyrate vs DMSO
SMN2-luciferase reporter [2] = assay: as above; assay type: cell-based, human; conditions: for S/B: 0.5 mg/mL sodium butyrate vs DMSO
[3] = Liver microsome stability
SMA mice = assay: SMA mice, intraperitoneal dosing: lifespan, weight, time to right; assay type: in vivo, mouse; conditions: for Time to right: individual pup, raw data
Procedure: The animal studies included new derivatives of LDN-76070 and LDN-75654. Mice were injected intraperitoneally once daily from post-natal day 1-10. […] Compounds LDN-212014, LDN-212016, LDN-212351, and LDN-212391 were injected into a cohort of animals (3-4 each). […] In the Kaplan-Meier curve that DMSO control decreased survival by 50%—the compounds were in […] (FIG. 26A).
LDN-212014 and LDN-76070 were further tested in A7 SMA model mice. Mice were dosed using compounds dissolved in 100% DMSO injected at 20 mg/kg with each dose administered once daily by intraperitoneal injection. As shown in the black curves in the Kaplan-Meier plot, control animals lived 4-5 days longer than the DMSO vehicle treated animals, indicating toxicity. […] In fact, the compounds display a statistically significant increase in survival compared with the untreated animals. These compounds extend the lifespan of SMA mice despite the DMSO toxicity.
In ‘time to right’ experiments, animals are placed on their backs and the duration for animals to right themselves is recorded. Animals that are unable to right in less than 30 seconds are scored as a failure. DMSO treated animals were unable to right themselves, while a small percentage of untreated animals display the ability to right themselves for up to postnatal day (PND) 11. A larger percentage of treated animals can right themselves past PND 17, and in the case of one animal as late as PND 21.

[4] = Solubility in PBS / aqueous solution; assay type: physicochemical; conditions: PBS
[5] = system: SMN-luciferase transcripts; assay: qRT-PCR of SMN-luciferase transcripts in SMN2-luc cells; assay type: cell-based, human; conditions: 24 hours, relative to DMSO, normalized to GAPDH, aclarubicin at 300 nM, words
Procedure: Compounds were tested at three concentrations that display maximal activity in the luciferase assay. Cells were treated as described above for the luciferase assay. Cells were harvested by trypsinization, neutralized with trypsin inhibitor, and washed. RNA was isolated from the cells using TRIZOL Reagent (Invitrogen 15596-026). cDNA was generated using the IMPROM-II Reverse Transcription System (Promega A3801).
The forward primer pair recognizes the exon 5-6 junction, which includes a restriction site that was engineered into the reporter and will exclude amplification of endogenous SMN mRNA. The reverse primers recognize either exon 7 or luciferase for detection of full-length or total SMN-luciferase transcripts respectively. For a reference control, cDNA from the housekeeping gene glyceraldehyde-3-phosphate dehydrogenase (GAPDH) was amplified. The primers used include SMN exon5-forward ([…]) (SEQ ID NO: 3), luciferase-reverse ([…]) (SEQ ID NO: 4), exon7-reverse ([…]) (SEQ ID NO: 5), GAPDH-reverse (G3A) ([…]) (SEQ ID NO: 6) and GAPDH-forward (G3S) ([…]) (SEQ ID NO: 7). qPCR was performed as described in the protocol for iQ SYBRGREEN SUPERMIX (Biorad 170-8882) using an EPPENDORF Mastercycler ep realplex^4 Thermo Cycler. Reactions were incubated for a 10 minute, 94° C. hot start followed by 45 cycles of the following: 94° C. for 45 second, 60° C. for 15 seconds, 72° C. for 45 seconds. Melting curves for each reaction were obtained. Each sample was assayed in triplicate and every plate contained a 5-point cDNA dilution course to calculate amplification efficiency for each primer pair. The Pfaffl method was used to determine the change in transcript levels relative to the DMSO and normalized to GAPDH (Pfaffl, M. W., “A new mathematical model for relative quantification in real-time RT-PCR,” Nucleic Acids Res 2001, 29(9), 3e45).
Based on the new reporter design, it was predicted that this screen could detect increased SMN-luciferase protein levels caused by compounds that stimulate SMN2 transcription, exon 7 inclusion, or by increasing the half-life of the SMN mRNA or protein. Quantitative reverse transcriptase PCR (qRT-PCR) was used to analyze SMN-luciferase mRNAs. All assays used RNA from control and compound-treated SMN2-luc cells and primers pairs were chosen to amplify only the SMN-luciferase derived transcripts (FIG. 4A). A pair of primers were used that specifically detects both full-length (exon 7 included) and Δ7 (exon 7 excluded) SMN-luciferase transcripts (primers 1 and 3). To measure changes in exon 7 splicing efficiency, a primer pair was used that detects only the full-length (exon 7 included) SMN-luciferase transcript (primers 1 and 2).
For each sample, the percent increase in the amount of total SMN-luciferase transcripts (gray bar) and exon 7 included full-length SMN-luciferase transcripts (white bar) was plotted (FIG. 4). Compounds that increase transcription should show increased total SMN-luciferase transcripts (gray bar) with a proportional increase for exon 7 included transcripts (white bar), assuming that proper splicing of exon 7 is not rate limiting. Compounds that stimulate exon 7 inclusion should increase the amount of exon 7 included full-length transcript (white bar) detected with little to no change in the expression of total SMN-luciferase transcripts (gray bar). In these experiments, cells were treated with compound, harvested, and each cell pellet was divided for isolation of RNA and to assay luciferase activity. Each qRT-PCR sample was normalized to the housekeeping gene glyceraldehyde-3-phosphate dehydrogenase (GAPDH). The Pfaffl method was used to calculate the change in the amount of total SMN mRNA and determine whether compound treatments increased SMN transcripts.

[6] = 96-well validation, 25,000 cells per well, 24 hrs
[7] = 96-well validation, 25,000 cells per well, 48 hrs
[8] = 96-well validation, 50,000 cells per well, 24 hrs
[9] = 96-well validation, 50,000 cells per well, 48 hrs
[10] = 384-well LDDN screen, 10,000 cells per well, 24 hrs
[11] = 384-well validation, 5,000 cells per well, 24 hrs
[12] = 384-well validation, 10,000 cells per well, 24 hrs

**Q.** What does the source list for CCCC(=O)[O-].[Na+] [Na-But]?
**A.** Na-But RLU ave (SMN2-luciferase reporter [1]; [6]): 2046 RLU; Na-But RLU ave (SMN2-luciferase reporter [1]; [7]): 3696 RLU; Na-But RLU ave (SMN2-luciferase reporter [1]; [8]): 4798 RLU; Na-But RLU ave (SMN2-luciferase reporter [1]; [9]): 7505 RLU; Na-But RLU ave (SMN2-luciferase reporter [1]; [10]): 13894 RLU; Na-But RLU ave (SMN2-luciferase reporter [1]; [11]): 1332 RLU; Na-But RLU ave (SMN2-luciferase reporter [1]; [12]): 39287 RLU; Na-But RLU ave (SMN2-luciferase reporter [2]; 0.5 mg/mL sodium butyrate, 384-well validation, 7,500 cells per well, 24 hrs): 2832 RLU

**Q.** Which “T1/2 in liver microsomes” value ([3]; Table 7) does the source give for O=C(Nc1ncc(C2(O)CCC2)s1)c1ccc(F)c(Cl)c1 [LDN-212014] here?
**A.** 39 min

**Q.** What about the Stabilityin liver microsomes ([3]; Table 8) of the same compound?
**A.** 39 min

**Q.** And the Stability ([3]; Table 9)?
**A.** 39 min

**Q.** What about the half-life ([3]; mouse, liver microsomes, t1/2 in mouse liver microsomes, mouse liver microsomes) of the same compound?
**A.** 39 min

**Q.** What about the EC50 (SMN2-luciferase reporter [1]; Homo sapiens, HEK293, reporter assay, Table 6, read-out: Ec50) of the same compound?
**A.** 500 nM

**Q.** And the Emax (SMN2-luciferase reporter [1]; Homo sapiens, HEK293, reporter assay, Table 6, read-out: Max % Activity)?
**A.** 180%

**Q.** And the Maximum % activation (SMN2-luciferase reporter [1]; Table 7)?
**A.** 156.6 ± 30.7%

**Q.** And the EC50 (SMN2-luciferase reporter [1]; Table 7, read-out: EC50)?
**A.** 300 nM

**Q.** What about the Active (SMN2-luciferase reporter [1]; reporter assay, Table 6) of the same compound?
**A.** Yes

**Q.** And the lifespan (SMA mice; IP once daily post-natal day 1-10, compounds in 20% DMSO, 3-4 animals each, words)?
**A.** extension of lifespan

**Q.** What about the “weight of the treated animals” value (SMA mice; IP once daily post-natal day 1-10, compounds in 20% DMSO, words) of the same compound?
**A.** increased

**Q.** And the Time to right (SMA mice; PND 6)?
**A.** Fail (Fail = >30 sec)

**Q.** What about the Time to right (SMA mice; PND 6, listed as 212014) of the same compound?
**A.** dead

**Q.** And the Time to right (SMA mice; PND 7)?
**A.** Fail (Fail = >30 sec)

**Q.** And the Time to right (SMA mice; PND 7, listed as 212014)?
**A.** dead

**Q.** What about the Time to right (SMA mice; PND 8) of the same compound?
**A.** Fail (Fail = >30 sec)

**Q.** And the Time to right (SMA mice; PND 8, listed as 212014)?
**A.** dead

**Q.** And the Time to right (SMA mice; PND 9)?
**A.** Fail (Fail = >30 sec) (2×) and dead and 26 seconds

**Q.** What about the Time to right (SMA mice; PND 10) of the same compound?
**A.** Fail (Fail = >30 sec)

**Q.** And the Time to right (SMA mice; PND 10, listed as 212014)?
**A.** dead

**Q.** What about the Time to right (SMA mice; PND 11) of the same compound?
**A.** 5 seconds and dead and Fail (Fail = >30 sec) (2×)

**Q.** What about the Time to right (SMA mice; PND 12) of the same compound?
**A.** 16 s

**Q.** And the Time to right (SMA mice; PND 12, listed as 212014)?
**A.** dead

**Q.** And the Time to right (SMA mice; PND 13)?
**A.** Fail (Fail = >30 sec)

**Q.** What about the Time to right (SMA mice; PND 13, listed as 212014) of the same compound?
**A.** dead

**Q.** And the Time to right (SMA mice; PND 14)?
**A.** 5 s

**Q.** What about the Time to right (SMA mice; PND 14, listed as 212014) of the same compound?
**A.** dead

**Q.** What about the Time to right (SMA mice; PND 15) of the same compound?
**A.** 14 s

**Q.** And the Time to right (SMA mice; PND 15, listed as 212014)?
**A.** dead

**Q.** What about the Time to right (SMA mice; PND 16) of the same compound?
**A.** Fail (Fail = >30 sec)

**Q.** What about the Time to right (SMA mice; PND 16, listed as 212014) of the same compound?
**A.** dead

**Q.** What about the Time to right (SMA mice; PND 17) of the same compound?
**A.** Fail (Fail = >30 sec)

**Q.** And the Time to right (SMA mice; PND 17, listed as 212014)?
**A.** dead

**Q.** What about the Time to right (SMA mice; PND 18) of the same compound?
**A.** dead

**Q.** What about the Time to right (SMA mice; PND 19) of the same compound?
**A.** dead

**Q.** What about the Time to right (SMA mice; PND 20) of the same compound?
**A.** dead

**Q.** What about the lifespan (SMA mice; SMA model mice, 20 mg/kg once daily IP in 100% DMSO, vs DMSO vehicle, p<0.0001, words) of the same compound?
**A.** significantly increased lifespan

**Q.** What about the “Maximal solubility in PBS” value [4] of the same compound?
**A.** >2000 µM

**Q.** For CCCC(=O)[O-].[Na+] [sodium butyrate, reference compound], which S/B (SMN2-luciferase reporter [1]; [6]) is on record?
**A.** 3.0

**Q.** What about the S/B (SMN2-luciferase reporter [1]; [8]) of the same compound?
**A.** 3.5

**Q.** What about the S/B (SMN2-luciferase reporter [1]; [9]) of the same compound?
**A.** 2.9

**Q.** And the S/B (SMN2-luciferase reporter [1]; [11])?
**A.** 2.6

**Q.** And the S/B (SMN2-luciferase reporter [1]; [12])?
**A.** 4.9

**Q.** What about the “increase of luciferase activity” value (SMN2-luciferase reporter [1]; 96-well format, sodium butyrate) of the same compound?
**A.** more than 3 fold

**Q.** What about the EC50 (SMN2-luciferase reporter [1]; Homo sapiens, HEK293) of the same compound?
**A.** 1000 µg/mL

**Q.** What about the Max. fold increase (SMN2-luciferase reporter [1]; cell-based reporter response to known SMN2 modulating compounds) of the same compound?
**A.** 10 fold

**Q.** What about the “exon 7 included full-length SMN-luciferase transcripts” value [5] of the same compound?
**A.** increased

**Q.** And the “total SMN-luciferase transcripts” value [5]?
**A.** increased

**Q.** And the S/B (SMN2-luciferase reporter [2]; [7])?
**A.** 2.6

**Q.** And the S/B (SMN2-luciferase reporter [2]; [10])?
**A.** 3.0

**Q.** And the S/B (SMN2-luciferase reporter [2]; 384-well validation, 7,500 cells per well, 24 hrs)?
**A.** 2.8
